Three compounds from ChEMBL document CHEMBL1201862, “PubChem BioAssay data set” (2004) can be followed below.

Activity calls are given as the source filed them.

Assay [1] relates to Streptococcus sp. 'group A'. Kind of assay: growth inhibition of control SK(-) GAS strain, dose response, counter-screen for streptokinase expression inhibitor project, luminescence, kanamycin, BacTiterGlo, confirmation (AID 1900). The format is functional, organism-based.
Assay [2] addresses T1, Serine/threonine-protein phosphatase (Candida dubliniensis (strain CD36 / CBS 7987 / NCPF 3949 / NRRLY-17841) (Yeast), UniProt B9W6M3).
T1 sequence (B9W6M3 whole entry): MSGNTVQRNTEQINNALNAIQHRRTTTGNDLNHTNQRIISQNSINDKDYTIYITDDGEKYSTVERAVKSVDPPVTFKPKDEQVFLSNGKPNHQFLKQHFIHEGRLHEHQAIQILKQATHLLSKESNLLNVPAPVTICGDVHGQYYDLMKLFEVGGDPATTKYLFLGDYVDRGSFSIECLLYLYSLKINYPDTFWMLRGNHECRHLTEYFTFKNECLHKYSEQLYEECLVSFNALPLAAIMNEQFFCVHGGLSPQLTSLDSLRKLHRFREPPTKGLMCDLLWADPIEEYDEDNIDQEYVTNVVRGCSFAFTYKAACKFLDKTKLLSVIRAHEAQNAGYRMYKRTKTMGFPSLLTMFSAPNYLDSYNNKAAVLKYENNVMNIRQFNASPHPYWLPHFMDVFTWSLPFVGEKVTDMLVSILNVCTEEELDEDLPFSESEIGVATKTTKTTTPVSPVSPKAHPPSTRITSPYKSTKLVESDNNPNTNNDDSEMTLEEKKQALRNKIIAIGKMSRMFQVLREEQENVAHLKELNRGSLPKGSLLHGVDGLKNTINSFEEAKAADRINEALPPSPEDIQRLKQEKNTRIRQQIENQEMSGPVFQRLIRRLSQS
Kind of assay: calcineurin pathway inhibitors in yeast reporter, dose response, S. cerevisiae, CDRE-lacZ, luminescence, secondary (AID 2388).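 Further: yeast reporter cells carrying a calcineurin-responsive lacZ construct stimulated with calcium chloride; luminescent beta-galactosidase reporter signal in whole cells rather than isolated phosphatase activity; potency for inhibition where a drop in reporter signal means calcineurin blockade.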 The format is functional, cell-based.

The next assay has as its target T2, Streptokinase A (Streptococcus pyogenes serotype M1, UniProt P10520).
T2 sequence (P10520 whole entry): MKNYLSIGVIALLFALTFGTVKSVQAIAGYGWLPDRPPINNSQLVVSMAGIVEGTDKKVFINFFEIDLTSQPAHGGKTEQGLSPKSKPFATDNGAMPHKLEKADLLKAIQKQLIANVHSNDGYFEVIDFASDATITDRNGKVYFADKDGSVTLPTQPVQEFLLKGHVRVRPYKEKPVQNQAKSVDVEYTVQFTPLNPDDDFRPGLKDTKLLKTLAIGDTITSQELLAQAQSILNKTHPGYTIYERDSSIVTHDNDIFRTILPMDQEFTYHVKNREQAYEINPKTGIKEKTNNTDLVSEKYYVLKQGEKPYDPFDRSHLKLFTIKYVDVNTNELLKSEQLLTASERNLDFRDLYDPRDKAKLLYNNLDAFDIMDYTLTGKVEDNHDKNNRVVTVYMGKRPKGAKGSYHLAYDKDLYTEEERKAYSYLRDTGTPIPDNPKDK
The assay can be described thus: S. pyogenes streptokinase expression inhibitors, potency, dose response, plasminogen activation absorbance, OD405 (AID 1914).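 Further: secreted streptokinase activity via plasminogen activation per viability signal from cell pellet.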 In kind it is functional, Streptococcus pyogenes M1 GAS.

Assay [3] is described as follows: inhibitors of intracellular T. cruzi replication, confirmation, NIH3T3 host cells, beta-gal luminescence (AID 2044).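 Further: intracellular parasites grown in NIH/3T3 mouse fibroblasts as host cells; luminescent beta-galactosidase reporter signal from transgenic T. cruzi replicating inside host cells; inhibitors lower the luminescence signal.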 In kind it is functional, cell-based.
Assay [4] addresses cAMP-dependent protein kinase catalytic subunit alpha (Homo sapiens, UniProt P17612). The format is functional.
Assay [5] has as its target Dual specificity protein kinase CLK2 (Homo sapiens, UniProt P49760). In kind it is functional.
For assay [6], the target named is Tyrosine-protein kinase Fyn (Homo sapiens, UniProt P06241). The format is functional.
Sequence of Tyrosine-protein kinase Fyn (P06241 whole entry): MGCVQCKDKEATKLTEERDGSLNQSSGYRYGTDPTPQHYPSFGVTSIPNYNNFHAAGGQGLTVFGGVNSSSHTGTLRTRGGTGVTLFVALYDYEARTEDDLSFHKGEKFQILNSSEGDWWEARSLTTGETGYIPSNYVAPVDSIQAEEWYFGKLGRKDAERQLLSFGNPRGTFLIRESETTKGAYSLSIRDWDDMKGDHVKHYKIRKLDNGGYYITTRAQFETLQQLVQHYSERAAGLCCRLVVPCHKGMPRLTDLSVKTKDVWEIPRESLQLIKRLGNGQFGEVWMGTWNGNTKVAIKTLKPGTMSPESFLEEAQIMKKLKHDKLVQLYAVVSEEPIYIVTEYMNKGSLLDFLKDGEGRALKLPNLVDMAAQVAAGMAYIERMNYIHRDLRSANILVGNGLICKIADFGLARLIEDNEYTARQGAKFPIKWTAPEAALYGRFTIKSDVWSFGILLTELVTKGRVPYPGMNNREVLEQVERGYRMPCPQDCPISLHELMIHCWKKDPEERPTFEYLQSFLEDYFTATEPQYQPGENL
Assay [7] has as its target Mitogen-activated protein kinase 8 (Homo sapiens, UniProt P45983). The format is functional.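 Further: value comes from one member of a kinome-wide kinase profiling panel.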
The target of another assay is Aurora kinase A (Homo sapiens, UniProt O14965). The format is functional.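 Further: value from the Navigating the Kinome kinase panel profiling, panel entry STK6.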
The target of assay [8] is Serine/threonine-protein kinase PAK 4 (Homo sapiens, UniProt O96013). The format is functional.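 Further: value obtained within a kinome profiling panel in which PAK4 was one of the panel members.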
Sequence of Serine/threonine-protein kinase PAK 4 (O96013 whole entry): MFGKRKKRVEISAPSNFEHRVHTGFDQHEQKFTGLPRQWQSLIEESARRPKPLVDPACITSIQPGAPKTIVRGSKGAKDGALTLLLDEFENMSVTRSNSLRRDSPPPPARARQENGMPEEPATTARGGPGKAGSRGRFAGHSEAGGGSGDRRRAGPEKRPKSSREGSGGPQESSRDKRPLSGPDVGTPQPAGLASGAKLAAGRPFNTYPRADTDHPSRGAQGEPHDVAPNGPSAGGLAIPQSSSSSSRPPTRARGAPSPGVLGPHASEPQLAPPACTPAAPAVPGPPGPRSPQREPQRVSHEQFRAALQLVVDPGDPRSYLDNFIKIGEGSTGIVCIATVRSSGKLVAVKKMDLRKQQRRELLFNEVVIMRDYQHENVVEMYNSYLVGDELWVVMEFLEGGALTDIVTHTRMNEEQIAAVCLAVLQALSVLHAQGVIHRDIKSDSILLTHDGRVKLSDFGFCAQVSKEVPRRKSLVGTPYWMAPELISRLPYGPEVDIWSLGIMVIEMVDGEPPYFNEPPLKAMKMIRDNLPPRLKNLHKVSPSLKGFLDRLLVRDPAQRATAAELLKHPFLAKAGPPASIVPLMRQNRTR
In assay [9] the target is Inhibitor of nuclear factor kappa-B kinase subunit epsilon (Homo sapiens, UniProt Q14164). Kind of assay: Navigating the Kinome. Panel member name: IKBKE. The format is functional.
Sequence of Inhibitor of nuclear factor kappa-B kinase subunit epsilon (Q14164 whole entry): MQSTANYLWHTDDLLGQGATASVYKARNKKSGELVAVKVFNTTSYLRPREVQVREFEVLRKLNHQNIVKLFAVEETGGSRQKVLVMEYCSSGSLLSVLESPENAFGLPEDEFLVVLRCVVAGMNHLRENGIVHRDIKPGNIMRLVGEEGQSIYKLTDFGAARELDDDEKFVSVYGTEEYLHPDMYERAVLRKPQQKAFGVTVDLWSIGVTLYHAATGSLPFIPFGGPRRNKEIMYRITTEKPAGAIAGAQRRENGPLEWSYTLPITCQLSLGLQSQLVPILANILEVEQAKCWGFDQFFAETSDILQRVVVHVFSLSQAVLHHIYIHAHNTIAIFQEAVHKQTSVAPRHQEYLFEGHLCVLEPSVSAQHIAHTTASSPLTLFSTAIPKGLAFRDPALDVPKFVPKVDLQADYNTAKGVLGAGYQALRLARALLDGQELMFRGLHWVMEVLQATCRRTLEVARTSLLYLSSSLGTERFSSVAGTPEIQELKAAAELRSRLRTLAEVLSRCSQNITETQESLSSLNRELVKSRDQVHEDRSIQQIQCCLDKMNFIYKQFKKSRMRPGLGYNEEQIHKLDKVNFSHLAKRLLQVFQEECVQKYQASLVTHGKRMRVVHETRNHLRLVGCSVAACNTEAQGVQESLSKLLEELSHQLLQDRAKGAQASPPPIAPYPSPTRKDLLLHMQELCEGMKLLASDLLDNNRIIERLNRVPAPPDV
The target of assay [10] is Proto-oncogene tyrosine-protein kinase receptor Ret (Homo sapiens, UniProt P07949). The format is functional.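 Further: measured within a kinome-wide profiling panel, RET as the panel member.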
Sequence of Proto-oncogene tyrosine-protein kinase receptor Ret (P07949 whole entry): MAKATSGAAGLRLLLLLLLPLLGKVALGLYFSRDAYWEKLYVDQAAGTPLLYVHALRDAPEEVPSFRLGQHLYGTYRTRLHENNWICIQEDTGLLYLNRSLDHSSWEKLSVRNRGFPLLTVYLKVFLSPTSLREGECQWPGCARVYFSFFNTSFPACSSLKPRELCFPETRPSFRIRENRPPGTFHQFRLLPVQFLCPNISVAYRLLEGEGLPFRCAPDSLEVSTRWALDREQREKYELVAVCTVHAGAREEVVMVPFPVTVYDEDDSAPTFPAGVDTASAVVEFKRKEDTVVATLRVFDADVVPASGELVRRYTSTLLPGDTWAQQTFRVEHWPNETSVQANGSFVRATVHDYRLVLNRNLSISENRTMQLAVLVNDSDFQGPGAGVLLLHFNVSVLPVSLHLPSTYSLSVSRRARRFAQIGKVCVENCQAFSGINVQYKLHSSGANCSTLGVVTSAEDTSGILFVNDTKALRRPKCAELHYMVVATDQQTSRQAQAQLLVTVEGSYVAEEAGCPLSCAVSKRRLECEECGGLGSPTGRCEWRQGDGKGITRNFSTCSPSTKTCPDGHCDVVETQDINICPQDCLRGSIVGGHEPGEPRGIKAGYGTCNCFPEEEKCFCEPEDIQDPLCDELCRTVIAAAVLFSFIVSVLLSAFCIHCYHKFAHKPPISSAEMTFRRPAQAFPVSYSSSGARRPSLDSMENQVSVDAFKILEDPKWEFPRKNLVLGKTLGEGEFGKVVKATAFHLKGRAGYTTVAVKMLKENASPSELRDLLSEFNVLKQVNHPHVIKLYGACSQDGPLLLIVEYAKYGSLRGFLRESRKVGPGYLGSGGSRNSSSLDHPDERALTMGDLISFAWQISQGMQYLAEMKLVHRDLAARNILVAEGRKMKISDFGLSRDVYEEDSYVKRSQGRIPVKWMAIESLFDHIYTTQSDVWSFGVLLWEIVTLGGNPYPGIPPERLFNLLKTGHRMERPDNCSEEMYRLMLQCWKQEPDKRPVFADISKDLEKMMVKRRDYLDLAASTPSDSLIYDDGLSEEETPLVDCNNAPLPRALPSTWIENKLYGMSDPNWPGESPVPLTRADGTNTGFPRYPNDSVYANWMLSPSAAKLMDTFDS
Assay [11] has as its target Platelet-derived growth factor receptor beta (Homo sapiens, UniProt P09619). In kind it is functional.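 Further: value comes from a kinome panel, with PDGFRB tested as one panel member.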
In assay [12] the target is Dual specificity mitogen-activated protein kinase kinase 2 (Homo sapiens, UniProt P36507). Kind of assay: Navigating the Kinome. Panel member name: MAP2K2. In kind it is functional.
For assay [13], the target named is T3, Sentrin-specific protease 6 (Homo sapiens, UniProt Q9GZR1).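 Further: Luminescence-based dose-response confirmatory assay of SENP6 inhibition, following up an ultra-high-throughput screen.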
T3 sequence (Q9GZR1 whole entry): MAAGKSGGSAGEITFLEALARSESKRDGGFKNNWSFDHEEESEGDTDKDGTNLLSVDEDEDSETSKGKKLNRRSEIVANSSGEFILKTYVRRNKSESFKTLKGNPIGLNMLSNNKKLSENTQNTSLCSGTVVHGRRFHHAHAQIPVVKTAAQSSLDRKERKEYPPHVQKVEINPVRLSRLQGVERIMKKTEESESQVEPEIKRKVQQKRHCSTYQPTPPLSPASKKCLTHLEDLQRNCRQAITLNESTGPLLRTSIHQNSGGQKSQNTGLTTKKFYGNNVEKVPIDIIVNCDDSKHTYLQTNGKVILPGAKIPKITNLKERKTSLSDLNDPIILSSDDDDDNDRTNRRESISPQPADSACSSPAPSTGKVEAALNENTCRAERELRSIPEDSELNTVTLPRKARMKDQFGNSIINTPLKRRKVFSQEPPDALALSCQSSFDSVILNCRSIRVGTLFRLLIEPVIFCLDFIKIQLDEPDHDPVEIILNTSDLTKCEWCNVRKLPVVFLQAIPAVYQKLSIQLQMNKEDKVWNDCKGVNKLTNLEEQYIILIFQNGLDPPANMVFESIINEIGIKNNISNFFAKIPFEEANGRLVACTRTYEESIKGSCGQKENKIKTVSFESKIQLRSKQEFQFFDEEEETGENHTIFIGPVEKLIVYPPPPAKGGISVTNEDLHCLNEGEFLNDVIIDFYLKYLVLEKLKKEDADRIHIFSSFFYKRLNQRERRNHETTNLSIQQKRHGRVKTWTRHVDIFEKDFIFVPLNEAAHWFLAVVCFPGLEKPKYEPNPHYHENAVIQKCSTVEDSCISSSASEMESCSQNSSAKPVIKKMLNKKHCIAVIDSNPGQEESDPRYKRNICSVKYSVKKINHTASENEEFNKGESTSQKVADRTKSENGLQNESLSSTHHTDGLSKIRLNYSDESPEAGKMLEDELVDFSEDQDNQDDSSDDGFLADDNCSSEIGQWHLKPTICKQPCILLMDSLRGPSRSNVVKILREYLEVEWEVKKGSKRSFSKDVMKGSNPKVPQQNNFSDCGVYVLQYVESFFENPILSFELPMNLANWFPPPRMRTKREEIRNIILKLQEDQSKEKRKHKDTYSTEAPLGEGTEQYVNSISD
In kind it is functional.

Sequence of Mitogen-activated protein kinase 8 (P45983 whole entry): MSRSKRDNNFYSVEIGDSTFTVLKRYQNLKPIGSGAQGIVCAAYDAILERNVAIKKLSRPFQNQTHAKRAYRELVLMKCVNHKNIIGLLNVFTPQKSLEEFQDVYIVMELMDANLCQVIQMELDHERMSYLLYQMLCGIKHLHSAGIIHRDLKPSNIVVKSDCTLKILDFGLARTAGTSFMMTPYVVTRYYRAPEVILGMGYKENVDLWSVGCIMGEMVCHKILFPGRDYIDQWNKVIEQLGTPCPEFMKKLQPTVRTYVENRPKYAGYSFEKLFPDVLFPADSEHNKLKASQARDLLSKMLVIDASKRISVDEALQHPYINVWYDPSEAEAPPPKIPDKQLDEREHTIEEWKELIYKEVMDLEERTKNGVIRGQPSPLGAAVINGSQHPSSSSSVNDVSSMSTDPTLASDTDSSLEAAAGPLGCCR
Sequence of Dual specificity protein kinase CLK2 (P49760 whole entry): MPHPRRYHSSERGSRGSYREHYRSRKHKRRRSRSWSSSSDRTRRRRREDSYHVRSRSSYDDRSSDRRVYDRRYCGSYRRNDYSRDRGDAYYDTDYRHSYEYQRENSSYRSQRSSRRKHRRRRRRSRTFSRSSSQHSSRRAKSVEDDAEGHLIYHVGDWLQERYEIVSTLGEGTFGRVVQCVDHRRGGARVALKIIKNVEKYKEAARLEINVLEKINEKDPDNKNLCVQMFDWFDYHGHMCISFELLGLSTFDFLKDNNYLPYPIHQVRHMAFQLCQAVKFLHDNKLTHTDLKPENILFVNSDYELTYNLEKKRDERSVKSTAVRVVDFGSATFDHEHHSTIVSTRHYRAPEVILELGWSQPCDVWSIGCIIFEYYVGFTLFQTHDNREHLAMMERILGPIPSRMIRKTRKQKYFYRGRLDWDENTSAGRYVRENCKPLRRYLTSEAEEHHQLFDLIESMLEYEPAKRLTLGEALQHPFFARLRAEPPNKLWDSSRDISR
Sequence of Platelet-derived growth factor receptor beta (P09619 whole entry): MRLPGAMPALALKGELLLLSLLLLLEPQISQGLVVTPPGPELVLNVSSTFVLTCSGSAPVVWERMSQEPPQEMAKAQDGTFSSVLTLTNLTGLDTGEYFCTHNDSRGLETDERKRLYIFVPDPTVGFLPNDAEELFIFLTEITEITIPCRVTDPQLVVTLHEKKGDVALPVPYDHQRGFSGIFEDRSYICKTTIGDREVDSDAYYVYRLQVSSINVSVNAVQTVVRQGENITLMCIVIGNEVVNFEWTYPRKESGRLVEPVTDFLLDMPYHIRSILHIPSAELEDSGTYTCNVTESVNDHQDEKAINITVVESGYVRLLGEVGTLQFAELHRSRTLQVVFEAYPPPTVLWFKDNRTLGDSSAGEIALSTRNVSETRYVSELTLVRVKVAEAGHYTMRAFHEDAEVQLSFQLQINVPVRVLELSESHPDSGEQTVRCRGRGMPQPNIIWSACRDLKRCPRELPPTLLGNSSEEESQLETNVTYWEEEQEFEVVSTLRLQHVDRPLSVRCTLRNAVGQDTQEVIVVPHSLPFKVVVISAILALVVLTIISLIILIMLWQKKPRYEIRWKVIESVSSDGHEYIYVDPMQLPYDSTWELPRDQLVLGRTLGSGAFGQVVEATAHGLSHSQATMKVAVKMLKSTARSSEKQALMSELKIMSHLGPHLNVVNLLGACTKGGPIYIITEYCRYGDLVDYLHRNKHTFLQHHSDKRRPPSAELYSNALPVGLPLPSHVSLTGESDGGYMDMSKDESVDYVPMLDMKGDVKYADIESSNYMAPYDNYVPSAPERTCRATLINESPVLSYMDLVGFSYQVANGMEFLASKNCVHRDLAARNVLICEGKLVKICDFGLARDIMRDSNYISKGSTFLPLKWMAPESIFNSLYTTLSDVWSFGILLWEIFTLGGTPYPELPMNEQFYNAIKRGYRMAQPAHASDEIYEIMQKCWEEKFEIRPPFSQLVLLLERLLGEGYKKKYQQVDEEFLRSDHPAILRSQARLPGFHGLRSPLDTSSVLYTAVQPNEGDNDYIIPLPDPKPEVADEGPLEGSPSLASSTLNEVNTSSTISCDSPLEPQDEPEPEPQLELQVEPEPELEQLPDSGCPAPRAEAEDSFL

Consider `CN1CCN(C(c2ccc(C(F)(F)F)cc2)c2cc(Cl)c3cccnc3c2O)CC1` (stereo not given), for which the EC50 is 0.558 µM (active) in assay [1], > 180 µM (inactive) in assay [2], > 150 µM (not active) on Streptokinase A and 1.32 µM (active) in [3].
In the case of `O=C(NC(CCO)c1ccccc1)c1ccc(-c2ccncc2)cc1` (stereo not given), the Ki in assay [4] was 0.0316 µM (active); in [5], > 3.98 µM (inactive); in [6], > 6.31 µM (inactive); in [7] it was > 5.01 µM (inactive); on Aurora kinase A it was > 1.58 µM (inactive); in assay [8], > 5.01 µM (inactive). Besides, the Ki is > 3.16 µM (inactive) in assay [9], > 3.16 µM (inactive) in assay [10], > 2 µM (inactive) in assay [11] and > 3.98 µM (inactive) in assay [12].
`NC(=O)c1c(NC(=O)c2cc3ccccc3o2)sc2c1CCC2`: the IC50 in [13] is 17.2 µM (active).
